Experimental data as given in article PMC10489073 (Molecules, 2023).

Assays:
[1] = molecular target: T1, chymotrypsin-like (CT-L) activity of the 20S proteasome (Homo sapiens, UniProt P20618+P28074); experiment: 20S proteasome inhibition assay (Proteasome-Glo Chymotrypsin-Like); type: biochemical; conditions: n ≥ 3, SD <20% of the mean, read-out: IC50 toward Chymotrypsin-like (CT-L)
T1 construct: purchased R&D systems, Minneapolis, MN, USA
Method: The 20S proteasome inhibition assay was performed using the Proteasome-Glo™ Chymotrypsin-Like Assay kit (Promega, Alexandria, NSW, Australia). Suc-LLVY-aminoluciferin is a substate that can be cleaved by the 20S proteasome, release the […] (aminoluciferin) and allow the luciferase reaction to produce light. Gradient concentration of tested compounds and the purified 20S proteasome enzyme (R&D systems, Minneapolis, MN, USA) were successively added into a transparent 96-well plate and mixed thoroughly. Then, 50 µL of a […] reagent was added. Gently mix contents with a plate shaker at 300 to 500 rpm for 30 s. Incubate at room temperature for an hour. The luminescence was recorded via the Tecan Spark multimode microplate.

[2] = system: P3x63Ag8.653; experiment: Cell proliferation analysis (MTT); type: cell-based, murine; conditions: Mus musculus, 48 h, read-out: Anti-proliferative activity IC50, P3x63Ag8.653
Method: All tumor cell lines in the current research were grown in a certain growth medium containing 10% FBS and 1% (v/v/v) penicillin–streptomycin–amphotericin at 37 °C in 5% CO2. Cells were seeded into 96-well plates at a density of 8 × 10^3 cells per well for tumor adherent cells and 2 × 10^4 cells per well for tumor-suspended cells in a final volume of 100 μL. After 12 h, 100 μL of various concentrations of compounds was added to each and incubated for 48 h. A 0.5% MTT solution was added per well before the intermixture was incubated for another 4 h, and formazan formed from MTT was extracted by adding […] of DMSO rocking for 15 min. Absorbance was measured at 570 nm using a Spark multimode microplate from Tecan. The IC50 values were calculated according to the inhibition ratios.

[3] = system: MM1.S cells; experiment: Cell apoptosis assay (Annexin V-FITC/PI flow cytometry); type: cell-based; conditions: 48 h
Method: For the cell apoptosis assay, MM1.S cells were plated in 12-well plates with a density of 6 × 10^5 cells per well and treated with BC-05 (1, 2, and 4 μM), ixazomib (10 nM) or a vehicle (0.5% DMSO) for 48 h after 12 h fixation. Then, cells were harvested, washed with a cold PBS buffer, and resuspended in 500 μL of an annexin V binding buffer. After being stained with 5 μL of Annexin V-FITC and 5 μL of propidium iodide, the cells were detected by a flow cytometer (Beckman Coulter Inc., Sharon Hill, PA, USA).

[4] = system: MM1.S cells; experiment: Cell cycle assay (PI flow cytometry); type: cell-based; conditions: MM1.S, 1, 2 and 4 µM, 48 h
Method: For the cell cycle assay, MM1.S cells were plated in 6-well plates with a density of 2.5 × 10^6 cells per well. A total of 12 h later, BC-05 (1, 2, and 4 μM), ixazomib (10 nM), or a vehicle (0.5% DMSO) was added, and the mixture was incubated for 48 h. Subsequently, cells were harvested, washed with cold PBS, and fixed in 75% cold ethanol at −20 °C overnight. After washing off the ethanol, fixed cells were treated with RNase A, dyed with propidium iodide solution (20 μg/mL), and incubated in the dark at 37 °C for 30 min. The final assay was analyzed using a Beckman flow cytometer.

[5] = In vivo pharmacokinetics; conditions: SD rats; for AUC(0-inf): SD
Method: The animal experiments were conducted under the guidelines of the “Regulations for the Administration of Affairs Concerning Experimental Animals” (revised 2017, State Council No. 676). The pharmacokinetic properties (PK) were performed in SD rats, and the procedures conducted were in accordance with institutional guidelines. Male SD rats (weighting 200 ± 20 g) fasted for 12 h and were divided into two groups, three in each group: oral administration of BC-05 (10 mg/kg) and intravenous administration of BC-05 (10 mg/kg). A total of 300 μL of a blood sample was collected through retro-orbital plexus from the rats in each group at 0 h, 0.033 h, 0.167 h, 0.5 h, 0.75 h, l h, 2 h, 4 h, 6 h, 8 h, 10 h, and 24 h. Plasma samples were placed in microcentrifuge tubes containing Li-heparin to avoid coagulant, separated by centrifugation at 12,000 rpm for 10 min, and stored at −80 °C until sample analysis. After the precipitation of proteins, samples were centrifuged at 15,000 rpm for 10 min, and the supernatant was reserved for HPLC-MS/MS analysis.

[6] = system: H22 pulmonary metastasis tumor model; experiment: In vivo H22 pulmonary metastasis model; set-up: species or system Kunming mice; conditions: p.o., BIW, 2 weeks, vehicle group 71.5
Method: The animal experiments were conducted under the guidelines of the “Regulations for the Administration of Affairs Concerning Experimental Animals” (revised 2017, State Council No. 676). H22 cells (3 × 10^6 cells/100 μL per mouse) were intravenously (i.v.) inoculated via the tail vein of Kunming mice aged 6 weeks on day 0. To ensure the growth of pulmonary metastasis before the drug treatment, the tumor was allowed to develop for 7 days. On day 8, the randomly grouped mice were treated with ixazomib (0.008 mmol/kg, p.o., BIW) or BC-05 (0.006, 0.008, and 0.01 mmol/kg, p.o., BIW) for consecutive 2 weeks. On day […], the mice were weighed and sacrificed, and the lungs were removed and weighed. After being fixed in the Bouin stationary solution for one day, the lung metastasized nodes of each mouse were numbered.

[7] = system: subcutaneous P3x63Ag8.653 tumor; experiment: In vivo P3x63Ag8.653 tumor transplant model; set-up: species or system mice
Method: The animal experiments were conducted under the guidelines of the “Regulations for the Administration of Affairs Concerning Experimental Animals” (revised 2017, State Council No. 676). For the P3x63Ag8.653 tumor development, male mice were subcutaneously injected with 200 μL murine P3x63Ag8.653 cells with a density of 1 × 10^7/mL. On the eighth day after injection, the transplanted mice were randomized into treatment and control groups. The tested compounds were administrated orally at the prescribed dose biweekly for two weeks. After two weeks of administration, mice were executed, and the tumor tissues were dissected and weighed. T/C was calculated according to the following formula: T/C = the mean RTV of the treated group/the mean RTV of the control group, where RTV is the relative tumor volume = Vt/V0 (Vt, the tumor volume measured at the end of treatment; V0, the tumor volume measured at the beginning of treatment).

[8] = male, rat, plasma, iv, i.v. at 10 mg/kg, n = 3
[9] = male, rat, plasma, oral at 10 mg/kg, n = 3

## CC(C)C[C@H](NC(=O)[C@@H](O)[C@H](N)Cc1ccccc1)B1OC(=O)C(CC(=O)O)(CC(=O)O)O1 [BC-05, 2,2′-(2-((R)-1-((2S,3R)-3-amino-2-hydroxy-4-phenylbutanamido)-3-methylbutyl)-5-oxo-1,3,2-dioxaborolane-4,4-diyl)diacetic acid]
[1]
  IC50: 1.39 µM
[2]
  IC50: 17.7 ± 0.75 µM
[3]; 1 µM
  cell apoptosis: 12.4%
[3]; 2 µM
  cell apoptosis: 73.1%
[3]; 4 µM
  cell apoptosis: 88.0%
[4]
  cell cycle arrest: blocks MM1.S cells in the Sub-G1 phase
[5]; oral at 10 mg/kg, n = 3
  CL: 128 ± 11 mL/min/kg
[5]; oral at 10 mg/kg, n = 3, 10 mg/kg
  AUC0–∞: 1307.71 ± 116.74 μg/L∗h
[5]; male, rat, plasma, iv, 10 mg/kg, i.v. at 10 mg/kg, n = 3
  AUC(0-inf): 5150 ± 482 ng·h/mL
[5]; male, rat, plasma, po, 10 mg/kg, oral at 10 mg/kg, n = 3
  AUC(0-inf): 1310 ng·h/mL
[5]; [8]
  Cmax: 10500 ng/mL
  Tmax: 0.03 h
  clearance: 32.5 mL/min/kg
  half-life: 1.72 ± 0.67 h
[5]; male, rat, plasma, oral at 10 mg/kg vs i.v. 10 mg/kg, read-out: F (oral bioavailability)
  bioavailability: 24.9 ± 4.32%
[5]; [9]
  Cmax: 373 ± 49.6 ng/mL
  Tmax: 2 h
  half-life: 2.35 ± 1.23 h
[6]; 0.006 mmol/kg
  number of H22 pulmonary nodes: 17.3
[6]; 0.008 mmol/kg
  number of H22 pulmonary nodes: 15.2
[6]; 0.01 mmol/kg
  number of H22 pulmonary nodes: 12.7
[7]; 0.008 mmol/kg oral, two weeks
  T/C (relative tumor volume): 31.2%
[7]; tumor-bearing mice, during oral administration
  body weight loss and side effects: No obvious body weight loss and discernible side effects
